# Data: patent EP1614420A2, “Treatment of hypertension, angina and other disorders using (-) amlodipine” (Sepracor Inc., priority 1992, dated 1993)
# Tests used:
# [1] = system: K+-depolarized isolated guinea pig ileal segment; experiment: Cardiovascular calcium antagonism, guinea pig ileum (in vitro); format: cell-based; settings: inhibition of contractile response to added calcium (20 µg/ml of CaCl), Ca-free physiological salt solution, 37° C, reference agents; for IC100: Cavia porcellus, read-out: ED100
# Source text: Cardiovascular Calcium Antagonism, Guinea Pig Ileum (in vitro):
# [2] = system: potassium-depolarized rat aorta; settings: in vitro; cited from earlier work
# β-adrenergic = settings: L-form versus D-enantiomer; cited from earlier work
SMILES,IC100 [1] [µg/mL],ED100 [1] [µg/mL],other results
COc1ccc(Cc2nccc3cc(OC)c(OC)cc23)cc1OC [papaverine],4,,
Fc1ccc(C(c2ccc(F)cc2)N2CCN(C/C=C/c3ccccc3)CC2)cc1 [flunarizine],0.1,,
CC(C)[N+]1(C)[C@@H]2CC[C@H]1CC(OC(=O)C(CO)c1ccccc1)C2.[Br-] (stereo partly shown) [ipratropium bromide],,>2,
CN1CCC(=C2c3ccccc3C=Cc3ccccc32)CC1 [cyproheptadine],0.025,,
CN(C)CCOC(c1ccccc1)c1ccccc1 [diphenhydramine],1,,
CC(COc1ccccc1)NC(C)C(O)c1ccc(O)cc1 (stereo not shown) [isoxuprine],,4,
"CCOC(=O)C1=C(COCCN)NC(C)=C(C(=O)OC)C1c1ccccc1Cl (single isomer, unassigned; isomer 3) [(-) isomer, 3-ethyl 5-methyl (-)-2-[(2-aminoethoxy)methyl]-4-(2-chlorophenyl)-1,4-dihydro-6-methyl-3,5-pyridine-dicarboxylate]",,,activity relative to the racemic mixture in antagonizing calcium-induced constriction [2]: twice as active as the racemic mixture
CC(C)NC[C@H](O)COc1cccc2ccccc12,,,times more potent than the D-enantiomer (β-adrenergic): 100 times
CC(CN1c2ccccc2Sc2ccccc21)N(C)C (stereo not shown) [promethazine],0.25,,
C(=C\c1ccccc1)/CN1CCN(C(c2ccccc2)c2ccccc2)CC1 [cinnazrizine],,1,
